pEC50: −log10 of the molar value. Values joined by “and” are separate entries in the source; they are usually repeats but may differ in a detail not shown here. Identical values can stand only once. Like-named read-outs stand apart in the source and are kept apart here.
Assays:
[1] = system: NL-RLuc virus (recombinant HIV NL4-3 with Renilla Luciferase) in MT-2 cells; test: Inhibition of HIV replication (NL-RLuc virus in MT-2 cells, luciferase readout); type: cell-based, human immunodeficiency virus (HIV)
Method in brief: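 NL4-3 carrying Renilla luciferase in place of part of nef, produced in 293T cells, was used to infect MT-2 cells in RPMI 1640/10% FBS with serial compound dilutions. After 5 days, virus growth was read by luciferase. EC50 came from the median effect equation over at least 2 experiments.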

[2] = MT2, 120 h, NL-RLuc virus infecting MT-2 cells, 5 days of incubation, 10% FBS, luciferase quantitation, at least 2 experiments

CCOC(=O)[C@@H](OC(C)(C)C)c1c(C)nc2cc3nn2c1N1CCC(C)(CC1)OCCCC[C@H](C)Oc1ccc(F)c(F)c1CCC3
ring closure, yield after HPLC (from CCOC(=O)[C@@H](OC(C)(C)C)c1c(C)nc2cc(CCCc3c(O)ccc(F)c3F)nn2c1N1CCC(C)(OCCCC[C@@H](C)O)CC1, ether bond, 20-membered ring, PPh3/DEAD, THF, 5.2 mM, 3.0 h, 2 steps): 23.6%

CCOC(=O)[C@@H](OC(C)(C)C)c1c(C)nc2cc3nn2c1N1CCC(C)(CC1)OCC=CCc1ccccc1C(=O)NC3
ring closure, yield after HPLC (from C=CCOC1(C)CCN(c2c([C@H](OC(C)(C)C)C(=O)OCC)c(C)nc3cc(CNC(=O)c4ccccc4CC=C)nn23)CC1, rcm bond, 18-membered ring, Hoveyda-Grubbs II (5 mol%), then NaOH, 1,2-dichloroethane, 4.7 mM, 70.0 °C, 2.0 h, 2 steps): 71.1%

Cc1nc2cc3nn2c(c1[C@H](OC(C)(C)C)C(=O)O)N1CCC(C)(CC1)OCC=CC[C@H](C)Oc1cc(F)cc(F)c1COC3 [Example 31, (2S)-2-(tert-Butoxy)-2-[(20S)-14,16-difluoro-4,20,26-trimethyl-11,19,25-trioxa-1,5,7,8-tetraazapentacyclo[24.2.2.1^6,^9.0^2,^7.0^13,^18]hentriaconta-2,4,6(31),8,13,15,17,22-octaen-3-yl]acetic acid]
pEC50 [1, 2]: 7.92 | ring closure, yield after HPLC (from C=CCOC1(C)CCN(c2c([C@H](OC(C)(C)C)C(=O)O)c(C)nc3cc(COCc4c(F)cc(F)cc4O[C@@H](C)CC=C)nn23)CC1, rcm bond, 20-membered ring, Hoveyda-Grubbs II/CuI, DCE, 11.5 mM, 90.0 °C, 1.5 h): 5.67%

CCOC(=O)[C@@H](OC(C)(C)C)c1c(C)nc2cc3nn2c1N1CCC(C)(CC1)OCCCC[C@H](C)Oc1c(F)cc(F)cc1CCC3
ring closure, yield after HPLC (from CCOC(=O)[C@@H](OC(C)(C)C)c1c(C)nc2cc(CCCc3cc(F)cc(F)c3O)nn2c1N1CCC(C)(OCCCC[C@@H](C)O)CC1, ether bond, 20-membered ring, PPh3/DEAD, THF, 6.4 mM, 3.0 h, 2 steps): 37.6%

CCOC(=O)[C@@H](OC(C)(C)C)c1c(C)nc2cc3nn2c1N1CCC(C)(CC1)OCC=CCOc1ccccc1CC(=O)NC3
ring closure, yield after HPLC (from C=CCOc1ccccc1CC(=O)NCc1cc2nc(C)c([C@H](OC(C)(C)C)C(=O)OCC)c(N3CCC(C)(OCC=C)CC3)n2n1, rcm bond, 20-membered ring, Hoveyda-Grubbs II (5 mol%), then NaOH, 1,2-dichloroethane, 8.6 mM, 70.0 °C, 4.0 h, 2 steps): 11.6% and 31.6%

Cc1ccc2c(c1)COCc1cc3nc(C)c([C@H](OC(C)(C)C)C(=O)O)c(n3n1)N1CCC(C)(CC1)OCC=CC[C@H](C)O2 [Example 29, (2S)-2-(tert-Butoxy)-2-[(20S)-4,15,20,26-tetramethyl-11,19,25-trioxa-1,5,7,8-tetraazapentacyclo[24.2.2.1^6,^9.0^2,^7.0^13,^18]hentriaconta-2,4,6(31),8,13,15,17,22-octaen-3-yl]acetic acid]
pEC50 [1, 2]: 8.22 | ring closure, yield after HPLC (from C=CCOC1(C)CCN(c2c([C@H](OC(C)(C)C)C(=O)O)c(C)nc3cc(COCc4cc(C)ccc4O[C@@H](C)CC=C)nn23)CC1, rcm bond, 20-membered ring, Hoveyda-Grubbs II/CuI, DCE, 13.0 mM, 90.0 °C, 3.0 h): 5.64%

CCOC(=O)[C@@H](OC(C)(C)C)c1c(C)nc2cc3nn2c1N1CCC(C)(CC1)OCC=CCN(Cc1ccc(F)c(C)c1)C(=O)C(=O)NC3
ring closure, yield after HPLC (from C=CCOC1(C)CCN(c2c([C@H](OC(C)(C)C)C(=O)OCC)c(C)nc3cc(CNC(=O)C(=O)N(CC=C)Cc4ccc(F)c(C)c4)nn23)CC1, rcm bond, 18-membered ring, Hoveyda-Grubbs II (5 mol%), then NaOH, 1,2-dichloroethane, 4.03 mM, 70.0 °C, 2.0 h, 2 steps): 63.3%

CCOC(=O)[C@@H](OC(C)(C)C)c1c(C)nc2cc3nn2c1N1CCC(C)(CC1)OCC=CCOC1(CCCCC1)c1cn(nn1)C3
ring closure, yield after HPLC (from C=CCOC1(C)CCN(c2c([C@H](OC(C)(C)C)C(=O)OCC)c(C)nc3cc(Cn4cc(C5(OCC=C)CCCCC5)nn4)nn23)CC1, rcm bond, 19-membered ring, Hoveyda-Grubbs II (5 mol%), then NaOH, 1,2-dichloroethane, 4.3 mM, 70.0 °C, 2.0 h, 2 steps): 30.6% and 24.1%

Cc1nc2cc3nn2c(c1[C@H](OC(C)(C)C)C(=O)O)N1CCC(C)(CC1)OCC=CC[C@H](C)Oc1ccc(F)cc1COC3 [Example 27, (2S)-2-(tert-Butoxy)-2-[(20S)-15-fluoro-4,20,26-trimethyl-11,19,25-trioxa-1,5,7,8-tetraazapentacyclo[24.2.2.1^6,^9.0^2,^7.0^13,^18]hentriaconta-2,4,6(31),8,13,15,17,22-octaen-3-yl]acetic acid]
pEC50 [1, 2]: 7.43 | ring closure, yield after HPLC (from C=CCOC1(C)CCN(c2c([C@H](OC(C)(C)C)C(=O)O)c(C)nc3cc(COCc4cc(F)ccc4O[C@@H](C)CC=C)nn23)CC1, rcm bond, 20-membered ring, Hoveyda-Grubbs II/CuI, DCE, 0.41 mM, 90.0 °C, 3.0 h): 50.2%

CCOC(=O)[C@@H](OC(C)(C)C)c1c(C)nc2cc3nn2c1N1CCC(C)(CC1)OCC=CC[C@H](C)Oc1cc(F)c(F)cc1COC3
ring closure, yield after HPLC (from C=CCOC1(C)CCN(c2c([C@H](OC(C)(C)C)C(=O)OCC)c(C)nc3cc(COCc4cc(F)c(F)cc4O[C@@H](C)CC=C)nn23)CC1, rcm bond, 20-membered ring, Hoveyda-Grubbs II/CuI, DCE, 4.25 mM, 90.0 °C, 3.0 h): 27%

Cc1nc2cc3nn2c(c1[C@H](OC(C)(C)C)C(=O)O)N1CCC(C)(CC1)OCC=CC[C@H](C)Oc1cc(F)c(F)cc1COC3 [Example 33, (2S)-2-(tert-Butoxy)-2-[(20S)-15,16-difluoro-4,20,26-trimethyl-11,19,25-trioxa-1,5,7,8-tetraazapentacyclo[24.2.2.1^6,^9.0^2,^7.0^13,^18]hentriaconta-2,4,6(31),8,13,15,17,22-octaen-3-yl]acetic acid]
pEC50 [1, 2]: 8.22

CCOC(=O)[C@@H](OC(C)(C)C)c1c(C)nc2cc3nn2c1N1CCC(C)(CC1)OCCCC[C@H](C)Oc1cc(F)c(F)cc1CCC3
ring closure, yield after HPLC (from CCOC(=O)[C@@H](OC(C)(C)C)c1c(C)nc2cc(CCCc3cc(F)c(F)cc3O)nn2c1N1CCC(C)(OCCCC[C@@H](C)O)CC1, ether bond, 20-membered ring, PPh3/DEAD, THF, 10.5 mM, 3.0 h, 2 steps): 19.2%

CCOC(=O)[C@@H](OC(C)(C)C)c1c(C)nc2cc3nn2c1N1CCC(C)(CC1)OCC=CCOc1cccc(c1)-c1cn(nn1)C3
ring closure, yield after HPLC (from C=CCOc1cccc(-c2cn(Cc3cc4nc(C)c([C@H](OC(C)(C)C)C(=O)OCC)c(N5CCC(C)(OCC=C)CC5)n4n3)nn2)c1, rcm bond, 21-membered ring, Hoveyda-Grubbs II (5 mol%), then H2, Pd/C, then NaOH, 1,2-dichloroethane, 1.8 mM, 70.0 °C, 2.0 h, 3 steps): 37.2%

Cc1nc2cc3nn2c(c1[C@H](OC(C)(C)C)C(=O)O)N1CCC(C)(CC1)OCCCCOc1ccccc1CC(=O)NC3 [Example 17, (2S)-2-(tert-Butoxy)-2-{4,26-dimethyl-12-oxo-20,25-dioxa-1,5,7,8,11-pentaazapentacyclo[24.2.2.1^6,^9.1^2,^7.0^14,^19]hentriaconta-2,4,6(31),8,14(19),15,17-heptaen-3-yl}acetic acid]
pEC50 [1, 2]: 7.62

Cc1ccc2c(c1)COCc1cc3nc(C)c([C@H](OC(C)(C)C)C(=O)O)c(n3n1)N1CCC(C)(CC1)OCCCC[C@H](C)O2 [Example 30, (2S)-2-(tert-Butoxy)-2-[(20S)-4,15,20,26-tetramethyl-11,19,25-trioxa-1,5,7,8-tetraazapentacyclo[24.2.2.1^6,^9.0^2,^7.0^13,^18]hentriaconta-2,4,6(31),8,13,15,17-heptaen-3-yl]acetic]
pEC50 [1, 2]: 7.19

CCCC1CCCCOC2(C)CCN(CC2)c2c([C@H](OC(C)(C)C)C(=O)O)c(C)nc3cc(nn23)COCc2ccc(C)cc2O1 (stereo partly drawn) [Example 45, (2S)-2-(tert-butoxy)-2-{4,16,26-trimethyl-20-propyl-11,19,25-trioxa-1,5,7,8-tetraazapentacyclo[24.2.2.1^6,^9.0^2,^7.0^13,^18]hentriaconta-2,4,6(31),8,13(18),14,16-heptane-3-yl}acetic acid]
pEC50 ([1]; {}): 7.46

Cc1nc2cc3nn2c(c1[C@H](OC(C)(C)C)C(=O)O)N1CCC(C)(CC1)OCCCC[C@@H](COCc1ccccc1)OC3 [Example 48, (2S)-2-[(12S)-12-[(benzyloxy)methyl]-4,18-dimethyl-11,17-dioxa-1,5,7,8-tetraazatetracyclo[16.2.2.1^6,^9.0^2,^7]tricosa-2,4,6(23),8-tetraen-3-yl]-2-(tert-butoxy)acetic acid]
pEC50 [1, 2]: 6.95

Cc1nc2cc3nn2c(c1[C@H](OC(C)(C)C)C(=O)O)N1CCC(C)(CC1)OCCCC[C@H](C)Oc1c(F)cc(F)cc1CCC3 [Example 41, (2S)-2-(tert-Butoxy)-2-[(20S)-15,17-difluoro-4,20,26-trimethyl-19,25-dioxa-1,5,7,8-tetraazapentacyclo[24.2.2.1^6,^9.0^2,^7.0^13,^18]hentriaconta-2,4,6(31),8,13(18),14,16-heptaen-3-yl]acetic acid]
pEC50 [1, 2]: 8.00

Cc1nc2cc3nn2c(c1[C@H](OC(C)(C)C)C(=O)O)N1CCC(C)(CC1)OCCCCCc1ccccc1COC3 [Example 57, (2S)-2-(tert-Butoxy)-2-{4,25-dimethyl-11,24-dioxa-1,5,7,8-tetraazapentacyclo[23.2.2.1^6,^9.0^2,^7.0^13,^18]triaconta-2,4,6(30),8,13(18),14,16-heptaen-3-yl}acetic acid]
pEC50 [1, 2]: 7.47

Cc1nc2cc3nn2c(c1[C@H](OC(C)(C)C)C(=O)O)N1CCC(C)(CC1)OCCCCOCc1ccccc1-c1cn(nn1)C3 [Example 5, (2S)-2-(tert-Butoxy)-2-{4,28-dimethyl-22,27-dioxa-1,5,7,8,11,12,13-heptaazahexacyclo[26.2.2.1^6,^9.1^11,^14.0^2,^7.0^15,^20]tetratriaconta-2,4,6(34),8,12,14(33),15(20),16,18-nonaen-3-yl}acetic acid]
pEC50 [1, 2]: 7.35

Cc1ccc2c(c1)O[C@@H](C)C/C=C/COC1(C)CCN(CC1)c1c([C@H](OC(C)(C)C)C(=O)O)c(C)nc3cc(nn13)COC2 [Example 37, (2S)-2-(tert-Butoxy)-2-[(20S,22E)-4,16,20,26-tetramethyl-11,19,25-trioxa-1,5,7,8-tetraazapentacyclo[24.2.2.1^6,^9.0^2,^7.0^13,^18]hentriaconta-2,4,6(31),8,13(18),14,16,22-octaen-3-yl]acetic acid]
pEC50 ([1]; NL-RLuc virus infecting MT-2 cells, 5 days of incubation, 10% FBS, luciferase quantitation, at least 2 experiments, read-out: EC50): 8.40

— patent publication US9273067B2, “Pyrazolopyrimidine macrocycles as inhibitors of human immunodeficiency virus replication” (BRISTOL-MYERS SQUIBB COMPANY, priority 2014, dated 2016)
